System: 653999-131-R-J2-PDC complex spheroids, growth inhibition
Test: Anticancer human tumor 653999-131-R-J2-PDC patient-derived lung adenocarcinoma cell line growth inhibition [RAS]
Settings: for IC50: curve of first compound; for viability, T/C: stronger effect = lower value
Summary of the method: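 Tumour cells grown as complex spheroids with HUVEC endothelial cells and mesenchymal stem cells, treated with RAS pathway inhibitor combinations. Each agent spans half-log steps from near clinical Cmax, or 10 microM where Cmax is unknown.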

[1] = second compound 0.00316 µM, first compound 0.0316 µM
[2] = second compound 0.00316 µM, first compound 0.1 µM
[3] = second compound 0.00316 µM, first compound 0.316 µM
[4] = second compound 0.00316 µM, first compound 1 µM
[5] = second compound 0.01 µM, first compound 0.0316 µM
[6] = second compound 0.01 µM, first compound 0.1 µM
[7] = second compound 0.01 µM, first compound 0.316 µM
[8] = second compound 0.01 µM, first compound 1 µM
[9] = second compound 0.0316 µM, first compound 0.0316 µM
[10] = second compound 0.0316 µM, first compound 0.1 µM
[11] = second compound 0.0316 µM, first compound 0.316 µM
[12] = second compound 0.0316 µM, first compound 1 µM
[13] = second compound 0.0316 µM, first compound 3.16 µM
[14] = second compound 0.0316 µM, first compound 10 µM
[15] = second compound 0.1 µM, first compound 0.0316 µM
[16] = second compound 0.1 µM, first compound 0.1 µM
[17] = second compound 0.1 µM, first compound 0.316 µM
[18] = second compound 0.1 µM, first compound 1 µM
[19] = second compound 0.1 µM, first compound 3.16 µM
[20] = second compound 0.1 µM, first compound 10 µM
[21] = second compound 0.316 µM, first compound 0.0316 µM
[22] = second compound 0.316 µM, first compound 0.1 µM
[23] = second compound 0.316 µM, first compound 0.316 µM
[24] = second compound 0.316 µM, first compound 1 µM
[25] = second compound 0.316 µM, first compound 3.16 µM
[26] = second compound 0.316 µM, first compound 10 µM
[27] = second compound 1 µM, first compound 0.0316 µM
[28] = second compound 1 µM, first compound 0.1 µM
[29] = second compound 1 µM, first compound 0.316 µM
[30] = second compound 1 µM, first compound 1 µM
[31] = second compound 1 µM, first compound 3.16 µM
[32] = second compound 1 µM, first compound 10 µM
[33] = second compound 0.00316 µM, first compound 0.00316 µM
[34] = second compound 0.00316 µM, first compound 0.01 µM
[35] = second compound 0.01 µM, first compound 0.00316 µM
[36] = second compound 0.01 µM, first compound 0.01 µM
[37] = second compound 0.0316 µM, first compound 0.00316 µM
[38] = second compound 0.0316 µM, first compound 0.01 µM
[39] = second compound 0.1 µM, first compound 0.00316 µM
[40] = second compound 0.1 µM, first compound 0.01 µM
[41] = second compound 0.316 µM, first compound 0.00316 µM
[42] = second compound 0.316 µM, first compound 0.01 µM
[43] = second compound 1 µM, first compound 0.00316 µM
[44] = second compound 1 µM, first compound 0.01 µM
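Note: spheroids exposed to the agents for seven days before the readout.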

CC(=O)OC12COC1CC(O)C1(C)C(=O)C(O)C3=C(C)C(OC(=O)C(O)C(NC(=O)OC(C)(C)C)c4ccccc4)CC(O)(C(OC(=O)c4ccccc4)C21)C3(C)C (stereo not drawn) + C=CC(=O)N1CCN(c2nc(OCC3CCCN3C)nc3c(F)c(-c4nc(N)cc(C)c4C(F)(F)F)c(Cl)cc23)C(C)C1
IC50 (second compound 0.00316 µM): > 10000 nM | IC50 (second compound 0.01 µM): > 10000 nM | IC50 (second compound 0.0316 µM): > 10000 nM | IC50 (second compound 0.1 µM): > 10000 nM | IC50 (second compound 0.316 µM): > 10000 nM | IC50 (second compound 1 µM): > 10000 nM | viability, T/C [1]: 56.6% | viability, T/C [2]: 48.1% | viability, T/C [3]: 56% | viability, T/C [4]: 58.8% | viability, T/C (second compound 0.00316 µM, first compound 3.16 µM): 61.7% | viability, T/C (second compound 0.00316 µM, first compound 10 µM): 68% | viability, T/C [5]: 63.7% | viability, T/C [6]: 54.2% | viability, T/C [7]: 57.9% | viability, T/C [8]: 67.5% | viability, T/C (second compound 0.01 µM, first compound 3.16 µM): 62.6% | viability, T/C (second compound 0.01 µM, first compound 10 µM): 76% | viability, T/C [9]: 58.4% | viability, T/C [10]: 59.2% | viability, T/C [11]: 49.2% | viability, T/C [12]: 58.7% | viability, T/C [13]: 73.4% | viability, T/C [14]: 66.5% | viability, T/C [15]: 59.5% | viability, T/C [16]: 57.2% | viability, T/C [17]: 53.7% | viability, T/C [18]: 56.2% | viability, T/C [19]: 72.5% | viability, T/C [20]: 93.3% | viability, T/C [21]: 55.7% | viability, T/C [22]: 61.3% | viability, T/C [23]: 54.5% | viability, T/C [24]: 63.5% | viability, T/C [25]: 79.8% | viability, T/C [26]: 84.1% | viability, T/C [27]: 53% | viability, T/C [28]: 57.5% | viability, T/C [29]: 62.3% | viability, T/C [30]: 60.3% | viability, T/C [31]: 62.9% | viability, T/C [32]: 82.4%

C=CC(=O)Nc1cc(Nc2nccc(-c3cn(C)c4ccccc34)n2)c(OC)cc1N(C)CCN(C)C + C=CC(=O)N1CCN(c2nc(OCC3CCCN3C)nc3c(F)c(-c4nc(N)cc(C)c4C(F)(F)F)c(Cl)cc23)C(C)C1
IC50 (second compound 0.00316 µM): 838 nM | IC50 (second compound 0.01 µM): > 1000 nM | IC50 (second compound 0.0316 µM): > 1000 nM | IC50 (second compound 0.1 µM): > 1000 nM | IC50 (second compound 0.316 µM): 894 nM | IC50 (second compound 1 µM): > 1000 nM | viability, T/C [33]: 104% | viability, T/C [34]: 90.8% | viability, T/C [1]: 95.3% | viability, T/C [2]: 94.9% | viability, T/C [3]: 70.3% | viability, T/C [4]: 46.3% | viability, T/C [35]: 94.1% | viability, T/C [36]: 83.7% | viability, T/C [5]: 79.5% | viability, T/C [6]: 100% | viability, T/C [7]: 57.9% | viability, T/C [8]: 56% | viability, T/C [37]: 113% | viability, T/C [38]: 100% | viability, T/C [9]: 95.3% | viability, T/C [10]: 69.6% | viability, T/C [11]: 59.2% | viability, T/C [12]: 59.4% | viability, T/C [39]: 108% | viability, T/C [40]: 86.8% | viability, T/C [15]: 89.5% | viability, T/C [16]: 77.5% | viability, T/C [17]: 69.6% | viability, T/C [18]: 52.7% | viability, T/C [41]: 100% | viability, T/C [42]: 107% | viability, T/C [21]: 98.8% | viability, T/C [22]: 70.8% | viability, T/C [23]: 67.7% | viability, T/C [24]: 46% | viability, T/C [43]: 105% | viability, T/C [44]: 104% | viability, T/C [27]: 94.2% | viability, T/C [28]: 67% | viability, T/C [29]: 58.6% | viability, T/C [30]: 55.9%

CC(=O)OC12COC1CC(O)C1(C)C(=O)C(O)C3=C(C)C(OC(=O)C(O)C(NC(=O)OC(C)(C)C)c4ccccc4)CC(O)(C(OC(=O)c4ccccc4)C21)C3(C)C (stereo not drawn)
viability, T/C (compound 0.0316 µM): 57.5% [middle of 4 runs] | viability, T/C (compound 0.1 µM): 58.8% [middle of 4 runs] | viability, T/C (compound 0.316 µM): 55.9% [middle of 4 runs] | viability, T/C (compound 1 µM): 61.6% [middle of 4 runs] | viability, T/C (compound 10 µM): 67.2% [middle of 4 runs]

CC(C)n1nc(-c2ccc3oc(N)nc3c2)c2c(N)ncnc21 + C=CC(=O)N1CCN(c2nc(OCC3CCCN3C)nc3c(F)c(-c4nc(N)cc(C)c4C(F)(F)F)c(Cl)cc23)C(C)C1
IC50 (second compound 0.00316 µM): 14.2 nM | IC50 (second compound 0.01 µM): 9.4 nM | IC50 (second compound 0.0316 µM): 16.4 nM | IC50 (second compound 0.1 µM): 12.4 nM | IC50 (second compound 0.316 µM): 11.7 nM | IC50 (second compound 1 µM): 15.9 nM | viability, T/C (second compound 0.00316 µM, first compound 0.000316 µM): 98.1% | viability, T/C (second compound 0.00316 µM, first compound 0.001 µM): 78.4% | viability, T/C [33]: 73.5% | viability, T/C [34]: 52.5% | viability, T/C [1]: 41.5% | viability, T/C [2]: 22.6% | viability, T/C (second compound 0.01 µM, first compound 0.000316 µM): 83.8% | viability, T/C (second compound 0.01 µM, first compound 0.001 µM): 97.3% | viability, T/C [35]: 68.8% | viability, T/C [36]: 50.5% | viability, T/C [5]: 35% | viability, T/C [6]: 29.1% | viability, T/C (second compound 0.0316 µM, first compound 0.000316 µM): 101% | viability, T/C (second compound 0.0316 µM, first compound 0.001 µM): 91.3% | viability, T/C [37]: 71.8% | viability, T/C [38]: 58.1% | viability, T/C [9]: 40.6% | viability, T/C [10]: 25% | viability, T/C (second compound 0.1 µM, first compound 0.000316 µM): 77.6% | viability, T/C (second compound 0.1 µM, first compound 0.001 µM): 74.6% | viability, T/C [39]: 70.7% | viability, T/C [40]: 55.2% | viability, T/C [15]: 30.4% | viability, T/C [16]: 26.3% | viability, T/C (second compound 0.316 µM, first compound 0.000316 µM): 92.8% | viability, T/C (second compound 0.316 µM, first compound 0.001 µM): 82% | viability, T/C [41]: 66.3% | viability, T/C [42]: 51.1% | viability, T/C [21]: 39.7% | viability, T/C [22]: 27.8% | viability, T/C (second compound 1 µM, first compound 0.000316 µM): 90.9% | viability, T/C (second compound 1 µM, first compound 0.001 µM): 91.8% | viability, T/C [43]: 72% | viability, T/C [44]: 55.8% | viability, T/C [27]: 42.1% | viability, T/C [28]: 26.6%

CC1(O)CCCC1n1c(=O)c(C(F)F)cc2cnc(NC3CCN(S(C)(=O)=O)CC3)nc21 (stereo not drawn) + C#Cc1c(F)ccc2cc(O)cc(-c3ncc4c(N5CC6CCC(C5)N6)nc(OCC56CCCN5CC(F)C6)nc4c3F)c12
IC50 (second compound 0.0316 µM): 4780 nM | IC50 (second compound 0.1 µM): 3960 nM | IC50 (second compound 0.316 µM): < 31.6 nM | IC50 (second compound 1 µM): < 31.6 nM | IC50 (second compound 3.16 µM): < 31.6 nM | IC50 (second compound 10 µM): < 31.6 nM | viability, T/C [9]: 71.3% | viability, T/C [10]: 54.8% | viability, T/C [11]: 62.4% | viability, T/C [12]: 57.2% | viability, T/C [13]: 63.1% | viability, T/C [14]: 29.6% | viability, T/C [15]: 69.4% | viability, T/C [16]: 49.9% | viability, T/C [17]: 51.2% | viability, T/C [18]: 52.1% | viability, T/C [19]: 58.4% | viability, T/C [20]: 24.7% | viability, T/C [21]: 49.4% | viability, T/C [22]: 42.7% | viability, T/C [23]: 42.6% | viability, T/C [24]: 45.5% | viability, T/C [25]: 49.2% | viability, T/C [26]: 27.7% | viability, T/C [27]: 40.5% | viability, T/C [28]: 31.4% | viability, T/C [29]: 32.7% | viability, T/C [30]: 34.3% | viability, T/C [31]: 34.4% | viability, T/C [32]: 24.5% | viability, T/C (second compound 3.16 µM, first compound 0.0316 µM): 29.6% | viability, T/C (second compound 3.16 µM, first compound 0.1 µM): 25.5% | viability, T/C (second compound 3.16 µM, first compound 0.316 µM): 21.6% | viability, T/C (second compound 3.16 µM, first compound 1 µM): 23% | viability, T/C (second compound 3.16 µM, first compound 3.16 µM): 31.4% | viability, T/C (second compound 3.16 µM, first compound 10 µM): 20.7% | viability, T/C (second compound 10 µM, first compound 0.0316 µM): 23.2% | viability, T/C (second compound 10 µM, first compound 0.1 µM): 17.1% | viability, T/C (second compound 10 µM, first compound 0.316 µM): 20.6% | viability, T/C (second compound 10 µM, first compound 1 µM): 19.7% | viability, T/C (second compound 10 µM, first compound 3.16 µM): 25.6% | viability, T/C (second compound 10 µM, first compound 10 µM): 22.7%
